The values that follow come from patent publication EP4741374A1, “TREPROSTINIL DERIVATIVE, AND PREPARATION METHOD THEREFOR AND USE THEREOF” (CF PharmTech HongKong Limited, priority 2023, dated 2025).

Entries after “also recorded” stand apart in the source; their conditions may differ. Read-outs that look alike come from different tables or passages of the source.

The test system of one data set is porcine esterase. The data set is described as follows: Hydrolysis conversion rate of compounds into TRE mediated by porcine esterase. The following applies: experiment (c); 0.2 mg/mL, 20 U porcine esterase, 38°C; 5 minutes to 2 hours. As to the method:
This experiment was designed to evaluate the conversion rates of various compounds with different ester side chain structures into the TRE under the action of esterase.
The carbon number of the ester side chain of each compound was 10, wherein the alkyl side chains of R-05, R-06 and R-08 contained 1~3 oxygen atoms respectively. Each compound was dissolved in 20 mL of ethanol to prepare a 1 mg/ml test compound solution for later use. Then, 1 mL of the test compound solution was transferred into 4 mL of PBS aqueous solution to obtain 0.2 mg/mL test compound reaction solution. The reaction solution was added with 20 U (80 µL) of porcine esterase, shaken evenly and then incubated at 38°C. After a period of reaction, samples were taken according to the following time points: 10 minutes, 30 minutes, 1 hour and 2 hours. The conversion of the test compound into TRE was detected. The hydrolysis of each sample was calculated according to measured peak areas of the reactant and the product: [formula]
Sampling time points were: 20 minutes, 40 minutes, 1 hour and 2 hours.
Sampling time points were: 5 minutes, 15 minutes, 30 minutes, 1 hour and 2 hours.

The subject of data set [1] is SD rats. Put plainly: U46619-induced rat acute pulmonary arterial pressure rise model, airway nebulized administration (RVSP). It counts as in vivo. The conditions noted are these: for antihypertensive effect and duration, overall: 1 to 48 hours after airway nebulized administration; for antihypertensive effect: equimolar to 13.3 µg/kg TRE. The source says: U46619 was a stable analogue of thromboxane A2 (TXA2), which activated the downstream IP3 signal by binding to the thromboxane A2 receptor to promote vasoconstriction, platelet aggregation and the like. Influences of compound C16-TR and equimolar compounds Ia-1, Ia-2, Ia-3, R-11 and R-12 at different time points after airway nebulized administration on pulmonary hypertension of rats were studied by using the U46619-induced rat pulmonary arterial pressure rise mode, which were compared with that of equimolar TRE after airway nebulized administration.
Preparation of test sample: a required amount of compound TRE was taken and added into a sterile EP tube, and each tube was added with an appropriate amount of DMSO for dissolution to prepare a stock solution (100 mg/mL). Compounds C16-TR, la-1, la-2, Ia-3, R-11 and R-12 were added with appropriate amounts of DMSO and dissolved in the original bottles to prepare stock solutions (100 mg/mL), and then the stock solutions were transferred to sterile EP tubes. Each above stock solution was hermetically stored in the dark in a refrigerator at 4°C. When the stock solution was tested, an appropriate amount of stock solution was taken and added into a new sterile EP tube, and diluted with DMSO and 1×PBS to a target concentration (working solution) wherein the solvent was 3% DMSO/1×PBS.
Preparation of modeling agent: 900 µL of methyl acetate was added into an original bottle of U46619 and mixed evenly to prepare 1 mg/mL(1 µg/µL) stock solution, which was divided into 10 µL (1 µg/µL) per sterile EP tube and stored in a refrigerator at -20°C. On the day of modeling, the stock solution was taken out and balanced at room temperature and constant temperature, and each tube was added with an appropriate amount of 0.9% sodium chloride solution (sterile) to be diluted 20-fold, so as to prepare a working solution with a concentration of 50 ng/µL.
Airway nebulized administration dosages of compound TRE and the test compounds were equimolar quantities calculated based on TRE. The dosage of compound TRE group (n=3) was 13.3 µg/kg, the dosage of compound C16-TR group (n=5) was 20.9 µg/kg, the dosage of compound Ia-1 group (n=3) was 21.2 µg/kg, the dosage of compound Ia-2 group (n=6) was 22.1 µg/kg, the dosage of compound Ia-3 group (n=6) was 23.1 µg/kg, the dosage of compound R-11 group (n=3) was 21.9 µg/kg, and the dosage of compound R-12 group (n=3) was 21.7 µg/kg. There were also a model control group (n=1) and a solvent control group (n=3).
The SD rats were injected with U46619 (25 µg /kg) through the left jugular vein at different time points after airway nebulized administration, the peak value of RVSP rise after injection with U46619 was observed and recorded, and the inhibition percentage on the RVSP rise was calculated by comparing with the basic RVSP value. The rats in the model control group were administered with U46619 by intravenous injection immediately after successful catheterization and measurement of the basic RVSP. RVSP of all animals were detected by right cardiac catheterization, and respiratory conditions of the animals were observed generally. Table-2 Time points of administrating U46619 in various groups

In data set [2] the test system is SD rats. Put plainly: U46619-induced rat acute pulmonary arterial pressure rise model, low-dose airway nebulized administration (RVSP). The data set is classed as in vivo. The following applies: for Inhibition percentage on RVSP rise (%) (mean): 1 hour after low-dose airway nebulized administration (about 3 µg/kg, equimolar). The source says:
In this experiment, airway nebulized administration dosages of the compounds were about 1/7 of airway nebulized administration dosages in Experimental Example 5. By using a U46619-induced rat acute pulmonary arterial pressure rise model, antihypertensive effects of the compounds of the present invention after airway nebulized administration were further verified by reducing the administration dosages.
A model construction method was the same as that described in Experimental Example 5. In this experiment, dosages of groups were as follows: the dosage of compound C16-TR group was 3 µg/kg, and the dosages of equimolar compounds Ia-1, Ia-2 and Ia-3 were 3.0 µg/kg, 3.2 µg/kg and 3.3 µg/kg respectively.
The SD rats were anesthetized and then administered by airway nebulization, and then the basic right ventricular systolic pressure (RVSP) was measured by right cardiac catheterization. The SD rats were intravenously injected with U46619 (25 µg /kg) at 1 hour after airway nebulized administration of each compound, a peak value of RVSP rise after injection with U46619 was observed and recorded, and the inhibition percentage on the RVSP rise was calculated by comparing with the basic RVSP value. The number of experimental animals in each group was 1~2.

The subject of another data set is subjects. The conditions noted are these: cited from earlier work.
For data set [3] the following is noted: cited from earlier work.
In a further data set the target is T1, EP2 receptor (Homo sapiens, UniProt P43116).
T1 construct: purchased Merck HTS185M
T1 sequence (P43116 whole entry): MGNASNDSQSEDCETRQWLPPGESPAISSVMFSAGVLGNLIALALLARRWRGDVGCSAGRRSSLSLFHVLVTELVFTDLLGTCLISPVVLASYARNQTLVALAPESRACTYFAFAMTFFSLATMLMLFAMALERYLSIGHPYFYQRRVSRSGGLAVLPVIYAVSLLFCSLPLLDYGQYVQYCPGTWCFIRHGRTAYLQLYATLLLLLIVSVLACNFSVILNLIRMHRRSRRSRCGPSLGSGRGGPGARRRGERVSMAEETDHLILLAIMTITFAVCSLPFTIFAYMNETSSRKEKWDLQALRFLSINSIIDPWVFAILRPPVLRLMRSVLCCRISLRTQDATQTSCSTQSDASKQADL
Put plainly: Competitive binding to EP2 receptor against radiolabeled ligand 3H-PGE2. The following applies: 8 concentrations from 10 µM, 10-fold dilutions. As for the experimental part: This experiment was carried out in 96-well plates to evaluate the binding affinity of the compounds of the present invention (Ia-1, Ia-2 and Ia-3) to the prostaglandin EP2 receptor by testing their ability of competitive binding to the EP2 receptor with the radiolabeled ligand ^3H-PGE2. Treprostinil was used as control. MicroBeta2 was used to detect the number of ^3H captured, and Prism software was used to analyze data. The EP2 film (Merck, Cat# HT[…], batch number 2121326) was diluted with a buffer (50 mM Hepes, PH=7.4, 5 mM MgCl2, 1 mM CaCl2, 0.5% BSA) to a final concentration of 75 μg/mL. ^3H-PGE2 was diluted to 15 nM. Test compound and control compound solutions with an initial concentration of 10 μM were prepared, and subjected to 10-fold continuous gradient dilution, with a total of 8 concentrations for testing. 5%DMSO was used as a solvent control group. 1 μL of each compound solution was added into a corresponding position in the 96-well test plate, and each well was added with 50 μL of the EP2 film (about 3.75 μg/well), and added with 50 μ L of ^3H-PGE2. Then, the well plate was sealed, and incubated with shaking at 300 rpm at room temperature for 2 hours. After finishing the incubation, GF/C plates were filtered with Perkin Elmer Filtermate Harvester, and then each plate was washed with cold eluent for 4 times, and dried at 50°C for 1 hour. After drying, bottoms of wells of the filter plate were sealed with a PerkinElmer Unifilter-96 backing tape. 50 μL of Perkin Elmer Microscint O was added. The top of the filter plate was sealed with Perkin Elmer TopSeal-A sealing film. The number of ^3H captured was detected by MicroBeta2.

The next data set concerns the target T2, IP receptor (Homo sapiens, UniProt P43119).
T2 construct: host or cells: HEK293 (IP/HEK293 cell line)
The data set is described as follows: In-vitro agonist activity on IP receptor, FLIPR calcium test in IP/HEK293 cells. The conditions noted are these: 10 concentrations, 10-fold dilutions. The data set is classed as cell-based. As for the experimental part: The specific method is as follows: The IP/HEK293 cell line was provided by WuXi AppTec (Shanghai) Co., Ltd. Well-grown IP/HEK293 cells were taken out from the incubator, the culture solution was aspirated, the cells were washed with D-PBS and digested with trypsin EDTA, and then added with a cell culture solution, and the cells were fully suspended by repeated pipetting. The cells were centrifuged at room temperature, the supernatant was aspirated, a culture medium was added, and the cells were resuspended by repeated pipetting with a sterile pipette. After counting living cells with Vi-CELL™, 20 µL (20,000 cells/well) of cell suspension was added to a 384-well cell culture plate and incubated in a 5% CO2 incubator at 37°C overnight. 1 mL of FLIPR test buffer was added with 77 mg of probenecid to prepare 250 mM probenecid solution. After thawing a bottle of 2XFluo-4 DirectTM (F10471), the bottle was added with 10 mL of FLIPR test buffer containing 500 uM AEBSF, and each 10 mL of Fluo-Direct was added with 0.2 mL of probenecid, with a final concentration of 2.5 mM. The mixture was vortexed and then allowed to stand in the dark for more than 5 minutes. Each compound was placed in a water bath at 25°C for 30 minutes. Then, these compounds were sequentially diluted 10-fold with Bravo, with a total of 10 concentrations, for testing. 750 nL of each compound was transferred to a 384-well compound plate with ECHO. Then, the compound plate was added with 30 µL of detection buffer. The 384-well cell culture plate was taken out from the incubator, the culture medium was discarded, and 20 µL of test buffer and 20 µL of 2X Fluo-4 DirectTM No-Wash loading buffer were added with a pipette. The cell culture plate was incubated in a 5% CO2 incubator at 37°C for 50 minutes and incubated at room temperature for 10 minutes. The cell culture plate, the compound plate and a tip box were placed into FLIPR, FLIPRTETRA test program was operated, 10 µL of reference compound and 10 µL of test compound were aspirated from the compound plate to the cell culture plate, fluorescence signals were read, and then data were processed. The data were analyzed by using Prism.

For data set [4] the following is noted: inhaled treprostinil; cited from earlier work.
[5] abbreviates: 16 hours after airway nebulized administration.

T2 sequence (P43119 whole entry): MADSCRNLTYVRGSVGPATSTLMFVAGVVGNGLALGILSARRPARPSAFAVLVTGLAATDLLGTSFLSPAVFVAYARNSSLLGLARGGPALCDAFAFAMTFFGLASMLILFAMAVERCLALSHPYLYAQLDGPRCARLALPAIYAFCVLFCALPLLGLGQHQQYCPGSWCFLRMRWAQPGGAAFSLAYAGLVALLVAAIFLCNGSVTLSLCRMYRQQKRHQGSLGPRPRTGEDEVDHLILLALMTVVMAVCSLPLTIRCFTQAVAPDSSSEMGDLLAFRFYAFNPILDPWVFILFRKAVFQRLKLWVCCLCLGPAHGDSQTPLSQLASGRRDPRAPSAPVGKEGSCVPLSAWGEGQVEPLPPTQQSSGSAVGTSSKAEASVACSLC

Turning to `CCCCCCCCCCCCCCCCOC(=O)COc1cccc2c1C[C@H]1C[C@@H](O)[C@H](CC[C@@H](O)CCCCC)[C@H]1C2` [Compound C16-TR, treprostinil palmitate], in the data set on porcine esterase, the “hydrolysis conversion rates (release of TRE)” value was “significantly prolong the hydrolysis conversion rates and release TRE slowly and steadily”. Moreover, the “antihypertensive effect and duration, overall” value with SD rats [1] (equimolar doses) is listed as “long-term antihypertensive effects”. In addition, the antihypertensive effect result in the data set with SD rats [1] (setting [5]) and with SD rats [2] (1 hour after low-dose airway nebulized administration) was “no antihypertensive effect” in each case. Moreover, in the data set on SD rats [2], the “Inhibition percentage on RVSP rise (%) (mean)” value came out at 5.49%. Further, the side effects entry was “developed cough and sore throat” with subjects (170 µg/kg and 340 µg/kg); “no side effects such as cough or sore throat” in the data set with subjects (low dose (54 µg/kg)). In data set [3] (HFA propellant with ethanol and DSPE-PEG2000, storage >1 week), the “physical stability in solution on long-term storage” value is reported as “could not remain soluble”. For the same compound, the “solubility in HFA propellant” value in data set [3] (content of ethanol lower than 13%) is “could not be dissolved”. For the same compound, the “reaction of dissolved compound with the alcohol solvent” value in data set [3] (dissolved state, ethanol) was “generates ester exchange impurities with the alcohol solvent; also recorded: can react with ethanol, leading to substitution of the C16 ester by an ethyl ester”.

Consider `CCCCC[C@H](O)CC[C@@H]1[C@H]2Cc3cccc(OCC(=O)OCCCCCCCCCCOCCCCc4ccccc4)c3C[C@H]2C[C@H]1O` [Compound Ia-3], for which the “binding to the EP2 receptor (competition with 3H-PGE2)” value (“binding to the EP2 receptor” for short) at EP2 receptor is reported as “no detectable binding”. Further, the “antihypertensive effect and duration, overall” value in the data set with SD rats [1] (equimolar doses) was “stronger antihypertensive effects than C16-TR and longer durations”. For the same compound, the antihypertensive effect result with SD rats [1] (24 hours after airway nebulized administration) was “obvious antihypertensive effects”. The “agonist activity on IP receptor” value at IP receptor is “no agonist activity”. For the same compound, in the data set on SD rats [2], the “Inhibition percentage on RVSP rise (%) (mean)” value turned out to be 83.49%.

Take `CCCCC[C@H](O)CC[C@@H]1[C@H]2Cc3cccc(OCC(=O)OCCCCCCOCCCCc4ccccc4)c3C[C@H]2C[C@H]1O` [Compound Ia-1]: at EP2 receptor, the “binding to the EP2 receptor” value is “no detectable binding”. Further, the “antihypertensive effects compared with C16-TR” value in the data set with SD rats [1] (1 hour and 6 hours after airway nebulized administration, equimolar doses) is listed as “better than those of C16-TR”. Moreover, the antihypertensive effect entry with SD rats [1] (setting [5]) was “no antihypertensive effect”. Besides, the “agonist activity on IP receptor” value at IP receptor was “no agonist activity”. Besides, in the data set with SD rats [2], the “Inhibition percentage on RVSP rise (%) (mean)” value turned out to be 67.67%.

As for `CCCCC[C@H](O)CC[C@@H]1[C@H]2Cc3cccc(OCC(=O)O)c3C[C@H]2C[C@H]1O` [TRE, treprostinil], the “binding to the EP2 receptor” value on EP2 receptor was “competitively inhibited the binding of the ligand ^3H-PGE2 to the EP2 receptor in a concentration-dependent manner”. For the same compound, the “inhibition percentage on the RVSP rise” value in the data set with SD rats [1] (13.3 µg/kg, 16 minutes after airway nebulized administration) is “about 39%”. Moreover, on IP receptor, the “agonist activity on IP receptor” value is on record as “strong agonist activity”. In addition, the half-life result in data set [4] is reported as “about 30 minutes”.
